# Laboratory results: ChEMBL document CHEMBL2021836, “Medicinal chemistry approaches to avoid aldehyde oxidase metabolism” (Bioorg Med Chem Lett, 2012)
# How the values were obtained:
# [1] = target: T1, Toll-like receptor 7 (Homo sapiens) (UniProt Q9NYK1); test: Agonist activity at human TLR7 expressed in human PBMCs assessed as reduction in HCV replicon level after 48 hrs by Bright Glo luciferase reporter gene assay; format: functional
# T1 sequence (whole entry): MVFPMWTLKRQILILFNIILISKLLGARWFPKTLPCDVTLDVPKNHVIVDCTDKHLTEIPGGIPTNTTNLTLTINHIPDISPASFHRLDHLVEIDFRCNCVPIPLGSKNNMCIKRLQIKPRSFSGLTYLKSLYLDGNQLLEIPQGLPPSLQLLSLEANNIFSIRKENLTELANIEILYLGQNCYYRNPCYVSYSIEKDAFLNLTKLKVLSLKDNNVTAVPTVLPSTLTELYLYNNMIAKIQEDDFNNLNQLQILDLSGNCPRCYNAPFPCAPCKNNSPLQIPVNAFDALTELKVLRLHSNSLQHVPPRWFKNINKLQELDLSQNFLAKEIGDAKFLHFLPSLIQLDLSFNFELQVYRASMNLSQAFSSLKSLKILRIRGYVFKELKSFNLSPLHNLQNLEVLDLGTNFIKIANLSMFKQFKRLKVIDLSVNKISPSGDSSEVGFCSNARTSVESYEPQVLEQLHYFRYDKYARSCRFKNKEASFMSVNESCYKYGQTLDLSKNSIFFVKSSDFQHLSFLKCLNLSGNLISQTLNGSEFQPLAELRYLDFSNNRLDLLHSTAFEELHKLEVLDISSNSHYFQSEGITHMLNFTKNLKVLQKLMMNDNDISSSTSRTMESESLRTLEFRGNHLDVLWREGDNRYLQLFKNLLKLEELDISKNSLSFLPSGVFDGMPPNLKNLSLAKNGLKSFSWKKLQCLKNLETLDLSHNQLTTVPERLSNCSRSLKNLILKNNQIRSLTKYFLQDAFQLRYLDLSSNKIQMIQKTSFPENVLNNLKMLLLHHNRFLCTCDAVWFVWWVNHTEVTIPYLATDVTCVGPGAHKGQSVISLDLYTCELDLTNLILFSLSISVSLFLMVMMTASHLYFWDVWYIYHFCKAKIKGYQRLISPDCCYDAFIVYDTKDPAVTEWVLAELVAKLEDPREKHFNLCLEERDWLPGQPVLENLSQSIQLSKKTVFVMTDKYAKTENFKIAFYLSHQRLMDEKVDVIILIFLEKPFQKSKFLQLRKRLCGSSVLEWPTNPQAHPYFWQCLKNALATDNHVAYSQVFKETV
# [2] = Intrinsic clearance in rat liver microsomes; format: ADME, Microsome; conditions: read-out: CLH
# [3] = Intrinsic clearance in human liver microsomes; format: ADME, Microsome; conditions: read-out: CLH
# [4] = Intrinsic clearance in human cytosol after 45 mins by LC/MS analysis; format: ADME
# [5] = Intrinsic clearance in rat cytosol after 45 mins by LC/MS analysis; format: ADME
structure (smiles),measurement,setting,value
Nc1nc(C(F)(F)F)cc2c1[nH]c(=O)n2Cc1ccc(N2CCOCC2)nc1,Activity,[1],32 nM
Cc1nc(Cn2c(=O)[nH]c3c(N)nc(C(F)(F)F)cc32)co1,microsomal CLint,[2],< 10 µL/min/mg
same,microsomal CLint,[3],< 8 µL/min/mg
same,microsomal CLint,[4],< 1 µL/min/mg
same,microsomal CLint,[5],< 1 µL/min/mg
Nc1nc(C(F)(F)F)cc2c1[nH]c(=O)n2Cc1ccc(C(F)(F)F)nc1,Activity,[1],75 nM
Cc1nc(Cn2c(=O)[nH]c3c(N)nc(C(F)(F)F)cc32)cs1,microsomal CLint,[2],< 10 µL/min/mg
same,microsomal CLint,[3],< 7 µL/min/mg
same,microsomal CLint,[4],< 1 µL/min/mg
same,microsomal CLint,[5],< 1 µL/min/mg
CCc1coc(-c2cc3c([nH]c(=O)n3Cc3ccc(C)nc3)c(N)n2)n1,Activity,[1],116 nM
Nc1nc(C(F)(F)F)cc2c1[nH]c(=O)n2Cc1ccc(NCC2CC2)nc1,Activity,[1],122 nM
COc1ccc(Cn2c(=O)[nH]c3c(N)nc(C(F)(F)F)cc32)cn1,Activity,[1],74 nM
Cc1cc(Cn2c(=O)[nH]c3c(N)nc(C(F)(F)F)cc32)no1,microsomal CLint,[2],< 9 µL/min/mg
same,microsomal CLint,[3],< 8 µL/min/mg
same,microsomal CLint,[4],< 1 µL/min/mg
same,microsomal CLint,[5],< 1 µL/min/mg
Nc1ccc(Cn2c(=O)[nH]c3c(N)nc(C(F)(F)F)cc32)cn1,Activity,[1],43 nM
